Like-named read-outs stand apart in the source and are kept apart here. Positions of bridges follow the written chain, without caps; N, C: chain ends. Residues, ends and D or L forms follow the SMILES beside them.
Experiments:
Type in all cases: binding
[1] = target: T1, FGF-R4 ECD (Homo sapiens, UniProt P22455); experiment: single concentration BLI of crude peptides
T1 construct: DNA constructs for the extracellular domain (ECD) of human FGF-; HPC4 (C); made in house; host or cells: HEK 293-6E
T1 sequence (P22455 22-369 limits assumed): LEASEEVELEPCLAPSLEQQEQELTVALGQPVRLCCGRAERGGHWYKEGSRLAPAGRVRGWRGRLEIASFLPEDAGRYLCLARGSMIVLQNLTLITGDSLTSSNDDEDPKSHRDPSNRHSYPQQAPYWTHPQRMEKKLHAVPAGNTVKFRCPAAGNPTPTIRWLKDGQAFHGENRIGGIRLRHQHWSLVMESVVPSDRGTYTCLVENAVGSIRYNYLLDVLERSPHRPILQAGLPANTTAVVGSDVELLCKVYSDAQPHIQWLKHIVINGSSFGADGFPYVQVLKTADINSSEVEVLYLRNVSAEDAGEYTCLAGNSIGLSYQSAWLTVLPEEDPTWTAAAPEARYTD
Method in brief: (§1)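 BLI, streptavidin sensors loaded with biotinylated receptor ECD. Single-point: ~1 μM crude peptide, PBS pH7.4/0.05% Tween-20/0.01% BSA; association then dissociation in buffer. KD corrected for UPLC-CAD-determined concentration.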

[2] = target: T2, FGF-R1C ECD (Homo sapiens, UniProt P11362); experiment: biochemical; set-up: DNA constructs for the extracellular domain (ECD) of human FGF-; HPC4 (C); made in house; host or cells: HEK 293-6E
T2 sequence (P11362 22-376 limits assumed): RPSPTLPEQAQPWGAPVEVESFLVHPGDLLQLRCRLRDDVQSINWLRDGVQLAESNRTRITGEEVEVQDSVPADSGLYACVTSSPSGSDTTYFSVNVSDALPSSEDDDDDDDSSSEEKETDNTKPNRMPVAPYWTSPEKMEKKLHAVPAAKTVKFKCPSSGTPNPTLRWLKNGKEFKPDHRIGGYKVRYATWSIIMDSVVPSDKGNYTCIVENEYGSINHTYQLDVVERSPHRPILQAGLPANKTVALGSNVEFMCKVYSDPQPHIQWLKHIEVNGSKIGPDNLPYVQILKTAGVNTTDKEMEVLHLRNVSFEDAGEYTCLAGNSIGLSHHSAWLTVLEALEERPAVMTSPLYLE
Method in brief: as §1

[3] = target: T3, FGF-R3C ECD (Homo sapiens, UniProt P22607); experiment: biochemical; set-up: DNA constructs for the extracellular domain (ECD) of human FGF-; HPC4 (C); made in house; host or cells: HEK 293-6E
T3 sequence (P22607 23-375 limits assumed): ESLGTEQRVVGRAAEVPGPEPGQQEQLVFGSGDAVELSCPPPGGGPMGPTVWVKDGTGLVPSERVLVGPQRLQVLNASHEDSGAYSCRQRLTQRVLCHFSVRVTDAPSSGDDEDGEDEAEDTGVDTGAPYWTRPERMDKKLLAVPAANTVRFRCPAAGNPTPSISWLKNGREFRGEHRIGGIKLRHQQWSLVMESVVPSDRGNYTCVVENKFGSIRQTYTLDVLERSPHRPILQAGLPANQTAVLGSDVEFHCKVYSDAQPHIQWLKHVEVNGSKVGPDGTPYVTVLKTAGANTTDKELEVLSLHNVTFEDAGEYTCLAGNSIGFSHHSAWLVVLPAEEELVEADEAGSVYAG
Method in brief: as §1

[4] = crude NNK peptides, single concentration BLI (Table S3), read-out: KD (4)
[5] = crude T18 selection 1 (1:1:1) peptides, single concentration BLI (Table S4), read-out: KD (4)

Work on `CC[C@H](C)[C@@H]1NC(=O)[C@H](CCCCN)NC(=O)[C@H](Cc2ccc(O)cc2)NC(=O)[C@H]([C@@H](C)CC)NC(=O)[C@H]([C@@H](C)O)NC(=O)[C@H]([C@@H](C)CC)NC(=O)[C@H](Cc2c[nH]cn2)NC(=O)[C@@H](NC(=O)[C@H](CCSC)NC(C)=O)CSSC[C@@H](C(=O)NCC(=O)N[C@@H](CO)C(=O)NCC(=O)N[C@@H](CO)C(=O)N[C@@H](CC(=O)O)C(=O)N[C@@H](Cc2ccc(O)cc2)C(=O)N[C@@H](CCCCN)C(=O)N[C@@H](CC(=O)O)C(=O)N[C@@H](CC(=O)O)C(=O)N[C@@H](CC(=O)O)C(=O)N[C@@H](CC(=O)O)C(=O)N[C@@H](CCCCN)C(N)=O)NC(=O)[C@H](Cc2ccc(O)cc2)NC(=O)[C@H](CCCNC(=N)N)NC(=O)[C@H](CC(C)C)NC1=O` (Ac-MCHITIYKILRYCGSGSDYKDDDDK-NH2; disulfide 2-13) yielded a Kd [1, 4] of 124 nM, a Kd [2] of over 10000 nM and a Kd [3] of over 10 µM.

Molecule `CSCC[C@H](NC(C)=O)C(=O)N[C@H]1CSSC[C@@H](C(=O)NCC(=O)N[C@@H](CO)C(=O)NCC(=O)N[C@@H](CO)C(=O)N[C@@H](CC(=O)O)C(=O)N[C@@H](Cc2ccc(O)cc2)C(=O)N[C@@H](CCCCN)C(=O)N[C@@H](CC(=O)O)C(=O)N[C@@H](CC(=O)O)C(=O)N[C@@H](CC(=O)O)C(=O)N[C@@H](CC(=O)O)C(=O)N[C@@H](CCCCN)C(N)=O)NC(=O)[C@H](CO)NC(=O)[C@H](Cc2c[nH]cn2)NC(=O)[C@H](Cc2ccccc2)NC(=O)[C@H](CC(C)C)NC(=O)[C@H](CCCCN)NC(=O)[C@H](Cc2ccc(O)cc2)NC(=O)[C@H](Cc2ccc(O)cc2)NC(=O)[C@H](CC(C)C)NC(=O)[C@H](CC(C)C)NC(=O)[C@H](Cc2c[nH]cn2)NC1=O` (Ac-MCHLLYYKLFHSCGSGSDYKDDDDK-NH2; disulfide 2-13) has a Kd [1, 5] of 114 nM, a Kd [2] of 63 nM and a Kd [3] of over 10 µM.

For `CSCC[C@H](NC(C)=O)C(=O)N[C@H]1CSSC[C@@H](C(=O)NCC(=O)N[C@@H](CO)C(=O)NCC(=O)N[C@@H](CO)C(=O)N[C@@H](CCC(=O)O)C(=O)N[C@@H](CCC(=O)O)C(=O)NCC(=O)N[C@@H](CO)C(=O)NCC(=O)N[C@@H](CO)C(=O)N[C@@H](CC(=O)O)C(=O)N[C@@H](Cc2ccc(O)cc2)C(=O)N[C@@H](CCCCN)C(=O)N[C@@H](CC(=O)O)C(=O)N[C@@H](CC(=O)O)C(=O)N[C@@H](CC(=O)O)C(=O)N[C@@H](CC(=O)O)C(=O)N[C@@H](CCCCN)C(N)=O)NC(=O)[C@H](CO)NC(=O)[C@H](Cc2c[nH]cn2)NC(=O)[C@H](Cc2ccccc2)NC(=O)[C@H](CC(C)C)NC(=O)[C@H](CCCNC(=N)N)NC(=O)[C@H](Cc2c[nH]c3ccccc23)NC(=O)[C@H](Cc2ccc(O)cc2)NC(=O)[C@H](Cc2ccc(O)cc2)NC(=O)[C@H](CC(C)C)NC(=O)[C@H](Cc2c[nH]cn2)NC(=O)[C@H](CCCNC(=N)N)NC(=O)[C@H](Cc2c[nH]cn2)NC1=O` (Ac-MCHRHLYYWRLFHSCGSGSEEGSGSDYKDDDDK-NH2; disulfide 2-15), the Kd [1, 5] was 5 nM, the Kd [2] was over 10000 nM and the Kd [3] was over 10 µM.

Molecule `CC[C@H](C)[C@@H]1NC(=O)[C@H](Cc2ccc(O)cc2)NC(=O)[C@H](CCCNC(=N)N)NC(=O)[C@H](Cc2c[nH]cn2)NC(=O)[C@@H](NC(=O)[C@H](CCSC)NC(C)=O)CSSC[C@@H](C(=O)NCC(=O)N[C@@H](CO)C(=O)NCC(=O)N[C@@H](CO)C(=O)N[C@@H](CC(=O)O)C(=O)N[C@@H](Cc2ccc(O)cc2)C(=O)N[C@@H](CCCCN)C(=O)N[C@@H](CC(=O)O)C(=O)N[C@@H](CC(=O)O)C(=O)N[C@@H](CC(=O)O)C(=O)N[C@@H](CC(=O)O)C(=O)N[C@@H](CCCCN)C(N)=O)NC(=O)[C@H](Cc2c[nH]cn2)NC(=O)[C@H](Cc2c[nH]c3ccccc23)NC(=O)[C@H](Cc2ccc(O)cc2)NC(=O)[C@H](CC(=O)O)NC(=O)[C@H](CC(C)C)NC(=O)[C@H](Cc2ccc(O)cc2)NC1=O` (Ac-MCHRYIYLDYWHCGSGSDYKDDDDK-NH2; disulfide 2-13) has a Kd [1] of 44 nM, a Kd [2] of over 10000 nM and a Kd [3] of over 10 µM.

With `CC[C@H](C)[C@@H]1NC(=O)[C@H](Cc2ccc(O)cc2)NC(=O)[C@H](Cc2c[nH]cn2)NC(=O)[C@@H](NC(=O)[C@H](CCSC)NC(C)=O)CSSC[C@@H](C(=O)NCC(=O)N[C@@H](CO)C(=O)NCC(=O)N[C@@H](CO)C(=O)N[C@@H](CC(=O)O)C(=O)N[C@@H](Cc2ccc(O)cc2)C(=O)N[C@@H](CCCCN)C(=O)N[C@@H](CC(=O)O)C(=O)N[C@@H](CC(=O)O)C(=O)N[C@@H](CC(=O)O)C(=O)N[C@@H](CC(=O)O)C(=O)N[C@@H](CCCCN)C(N)=O)NC(=O)[C@H](CC(C)C)NC(=O)[C@H](Cc2c[nH]c3ccccc23)NC(=O)[C@H](CC(=O)O)NC(=O)[C@H](CO)NC1=O` (Ac-MCHYISDWLCGSGSDYKDDDDK-NH2; disulfide 2-10) the Kd [1, 4] was over 10000 nM, the Kd [2] was over 10000 nM and the Kd [3] was over 10 µM.

Molecule `CC[C@H](C)[C@@H]1NC(=O)[C@@H](NC(=O)[C@H](CCSC)NC(C)=O)CSSC[C@@H](C(=O)NCC(=O)N[C@@H](CO)C(=O)NCC(=O)N[C@@H](CO)C(=O)N[C@@H](CC(=O)O)C(=O)N[C@@H](Cc2ccc(O)cc2)C(=O)N[C@@H](CCCCN)C(=O)N[C@@H](CC(=O)O)C(=O)N[C@@H](CC(=O)O)C(=O)N[C@@H](CC(=O)O)C(=O)N[C@@H](CC(=O)O)C(=O)N[C@@H](CCCCN)C(N)=O)NC(=O)[C@H](C(C)C)NC(=O)[C@H](C(C)C)NC(=O)[C@H](Cc2c[nH]c3ccccc23)NC(=O)[C@H](Cc2ccccc2)NC(=O)[C@H](CC(=O)O)NC(=O)[C@H](CO)NC(=O)[C@H](CC(C)C)NC(=O)[C@H](CCCNC(=N)N)NC(=O)[C@H](Cc2c[nH]cn2)NC1=O` (Ac-MCIHRLSDFWVVCGSGSDYKDDDDK-NH2; disulfide 2-13) has a Kd [1, 4] of 41 nM, a Kd [2] of 19 nM and a Kd [3] of 0.049 µM.

`CC[C@H](C)[C@@H]1NC(=O)[C@@H](NC(=O)[C@H](CCSC)NC(C)=O)CSSC[C@@H](C(=O)NCC(=O)N[C@@H](CO)C(=O)NCC(=O)N[C@@H](CO)C(=O)N[C@@H](CC(=O)O)C(=O)N[C@@H](Cc2ccc(O)cc2)C(=O)N[C@@H](CCCCN)C(=O)N[C@@H](CC(=O)O)C(=O)N[C@@H](CC(=O)O)C(=O)N[C@@H](CC(=O)O)C(=O)N[C@@H](CC(=O)O)C(=O)N[C@@H](CCCCN)C(N)=O)NC(=O)[C@H](CC(C)C)NC(=O)[C@H](CC(C)C)NC(=O)[C@H](Cc2ccc(O)cc2)NC(=O)[C@H](Cc2ccc(O)cc2)NC(=O)[C@H](Cc2ccccc2)NC(=O)[C@H](CC(C)C)NC(=O)[C@H](Cc2c[nH]cn2)NC(=O)[C@H](CC(C)C)NC(=O)[C@H](CC(=O)O)NC(=O)[C@H](CCCCN)NC1=O` (Ac-MCIKDLHLFYYLLCGSGSDYKDDDDK-NH2; disulfide 2-14) was tested, and the Kd [1, 5] was 14 nM, the Kd [2] was 30 nM and the Kd [3] was over 10 µM.

`CC[C@H](C)[C@@H]1NC(=O)[C@@H](NC(=O)[C@H](CCSC)NC(C)=O)CSSC[C@@H](C(=O)NCC(=O)N[C@@H](CO)C(=O)NCC(=O)N[C@@H](CO)C(=O)N[C@@H](CC(=O)O)C(=O)N[C@@H](Cc2ccc(O)cc2)C(=O)N[C@@H](CCCCN)C(=O)N[C@@H](CC(=O)O)C(=O)N[C@@H](CC(=O)O)C(=O)N[C@@H](CC(=O)O)C(=O)N[C@@H](CC(=O)O)C(=O)N[C@@H](CCCCN)C(N)=O)NC(=O)[C@H](CO)NC(=O)[C@H](CO)NC(=O)[C@H](CCCNC(=N)N)NC(=O)[C@H](Cc2c[nH]c3ccccc23)NC(=O)[C@H](CC(C)C)NC(=O)[C@H](CC(C)C)NC(=O)[C@H](Cc2ccccc2)NC(=O)[C@H]([C@@H](C)O)NC(=O)[C@H](CCCCN)NC1=O` (Ac-MCIKTFLLWRSSCGSGSDYKDDDDK-NH2; disulfide 2-13) showed a Kd [1, 4] of over 10000 nM, a Kd [2] of over 10000 nM and a Kd [3] of over 10 µM.
